Columns and labels:
[1] = test system: BT-549; assay: Growth inhibition of human BT549 cells assessed as cell growth at 10 uM incubated for 48 hrs by sulforhodamine B assay relative to control; type: functional; settings: BT-549, 48 h, read-out: Activity
[2] = test system: IGROV-1; assay: Growth inhibition of human IGROV1 cells assessed as cell growth at 10 uM incubated for 48 hrs by sulforhodamine B assay relative to control; type: functional; settings: IGROV-1, 48 h, read-out: Activity
[3] = test system: HOP-62; assay: Growth inhibition of human HOP62 cells assessed as cell growth at 10 uM incubated for 48 hrs by sulforhodamine B assay relative to control; type: functional; settings: HOP-62, 48 h, read-out: Activity
[4] = test system: SW-620; assay: Growth inhibition of human SW620 cells assessed as cell growth at 10 uM incubated for 48 hrs by sulforhodamine B assay relative to control; type: functional; settings: SW-620, 48 h, read-out: Activity
[5] = test system: UO-31; assay: Growth inhibition of human UO31 cells incubated for 48 hrs by sulforhodamine B assay; type: functional, cell-based; settings: UO-31, 48 h
[6] = test system: MOLT-4; assay: Growth inhibition of human MOLT4 cells assessed as cell growth at 0.01 uM incubated for 48 hrs by sulforhodamine B assay relative to control; type: functional; settings: MOLT-4, 48 h, read-out: Activity
[7] = test system: NCI-H23; assay: Growth inhibition of human NCI-H23 cells assessed as cell growth at 10 uM incubated for 48 hrs by sulforhodamine B assay relative to control; type: functional; settings: NCI-H23, 48 h, read-out: Activity
[8] = test system: NCI-H460; assay: Growth inhibition of human NCI-H460 cells assessed as cell growth at 0.01 uM incubated for 48 hrs by sulforhodamine B assay relative to control; type: functional; settings: NCI-H460, 48 h, read-out: Activity
[9] = test system: MCF7; assay: Growth inhibition of human MCF7 cells assessed as cell growth at 10 uM incubated for 48 hrs by sulforhodamine B assay relative to control; type: functional; settings: MCF7, 48 h, read-out: Activity
[10] = test system: K562; assay: Growth inhibition of human K562 cells assessed as cell growth at 10 uM incubated for 48 hrs by sulforhodamine B assay relative to control; type: functional; settings: K562, 48 h, read-out: Activity
[11] = test system: NCI-H23; assay: Growth inhibition of human NCI-H23 cells assessed as cell growth at 100 uM incubated for 48 hrs by sulforhodamine B assay relative to control; type: functional; settings: NCI-H23, 48 h, read-out: Activity
[12] = test system: MDA-MB-468; assay: Growth inhibition of human MDA-MB-468 cells assessed as cell growth at 10 uM incubated for 48 hrs by sulforhodamine B assay relative to control; type: functional; settings: MDA-MB-468, 48 h, read-out: Activity
[13] = test system: TK-10; assay: Growth inhibition of human TK10 cells assessed as cell growth at 10 uM incubated for 48 hrs by sulforhodamine B assay relative to control; type: functional; settings: TK-10, 48 h, read-out: Activity
[14] = test system: MDA-MB-231; assay: Growth inhibition of human MDA-MB-231 cells assessed as cell growth at 10 uM incubated for 48 hrs by sulforhodamine B assay relative to control; type: functional; settings: MDA-MB-231, 48 h, read-out: Activity
[15] = test system: RPMI-8226; assay: Growth inhibition of human RPMI8226 cells assessed as cell growth at 10 uM incubated for 48 hrs by sulforhodamine B assay relative to control; type: functional; settings: RPMI-8226, 48 h, read-out: Activity
[16] = test system: KM12; assay: Growth inhibition of human KM12 cells assessed as cell growth at 10 uM incubated for 48 hrs by sulforhodamine B assay relative to control; type: functional; settings: KM12, 48 h, read-out: Activity
[17] = test system: MOLT-4; assay: Growth inhibition of human MOLT4 cells assessed as cell growth at 0.1 uM incubated for 48 hrs by sulforhodamine B assay relative to control; type: functional; settings: MOLT-4, 48 h, read-out: Activity
[18] = test system: M14; assay: Growth inhibition of human M14 cells assessed as cell growth at 10 uM incubated for 48 hrs by sulforhodamine B assay relative to control; type: functional; settings: M14, 48 h, read-out: Activity
[19] = test system: NCI-H322M; assay: Growth inhibition of human NCI-H322M cells assessed as cell growth at 10 uM incubated for 48 hrs by sulforhodamine B assay relative to control; type: functional; settings: read-out: Activity
[20] = test system: HCC 2998; assay: Growth inhibition of human HCC2998 cells assessed as cell growth at 10 uM incubated for 48 hrs by sulforhodamine B assay relative to control; type: functional; settings: HCC 2998, 48 h, read-out: Activity
[21] = test system: OVCAR-3; assay: Growth inhibition of human OVCAR3 cells assessed as cell growth at 10 uM incubated for 48 hrs by sulforhodamine B assay relative to control; type: functional; settings: OVCAR-3, 48 h, read-out: Activity
[22] = test system: Malme-3M; assay: Growth inhibition of human MALME-3M cells assessed as cell growth at 10 uM incubated for 48 hrs by sulforhodamine B assay relative to control; type: functional; settings: read-out: Activity
[23] = test system: OVCAR-5; assay: Growth inhibition of human OVCAR5 cells incubated for 48 hrs by sulforhodamine B assay; type: functional, cell-based; settings: OVCAR-5, 48 h
[24] = test system: RXF 393; assay: Growth inhibition of human RXF393 cells assessed as cell growth at 10 uM incubated for 48 hrs by sulforhodamine B assay relative to control; type: functional; settings: RXF 393, 48 h, read-out: Activity
[25] = test system: SF-539; assay: Growth inhibition of human SF539 cells assessed as cell growth at 10 uM incubated for 48 hrs by sulforhodamine B assay relative to control; type: functional; settings: SF-539, 48 h, read-out: Activity
[26] = test system: OVCAR-5; assay: Growth inhibition of human OVCAR5 cells assessed as cell growth at 1 uM incubated for 48 hrs by sulforhodamine B assay relative to control; type: functional; settings: OVCAR-5, 48 h, read-out: Activity
[27] = test system: OVCAR-8; assay: Growth inhibition of human OVCAR8 cells assessed as cell growth at 10 uM incubated for 48 hrs by sulforhodamine B assay relative to control; type: functional; settings: OVCAR-8, 48 h, read-out: Activity
[28] = test system: UACC-257; assay: Growth inhibition of human UACC257 cells assessed as cell growth at 1 uM incubated for 48 hrs by sulforhodamine B assay relative to control; type: functional; settings: UACC-257, 48 h, read-out: Activity
[29] = test system: SNB-19; assay: Growth inhibition of human SNB19 cells assessed as cell growth at 10 uM incubated for 48 hrs by sulforhodamine B assay relative to control; type: functional; settings: SNB-19, 48 h, read-out: Activity
[30] = test system: UO-31; assay: Growth inhibition of human UO31 cells assessed as cell growth at 0.1 uM incubated for 48 hrs by sulforhodamine B assay relative to control; type: functional; settings: UO-31, 48 h, read-out: Activity
[31] = test system: SF-268; assay: Growth inhibition of human SF268 cells assessed as cell growth at 100 uM incubated for 48 hrs by sulforhodamine B assay relative to control; type: functional; settings: SF-268, 48 h, read-out: Activity
[32] = test system: NCI/ADR-RES; assay: Growth inhibition of human NCI/ADR-RES cells assessed as cell growth at 10 uM incubated for 48 hrs by sulforhodamine B assay relative to control; type: functional; settings: read-out: Activity
[33] = read-out: LC50 (the source's name)
[34] = read-out: pLC50 (the source's name) (converted)

O=C(Nc1cccc(-n2cc(-c3ccncc3)c(-c3cc(O)cc(Cl)c3)n2)c1)c1ccc(N2CCOCC2)c(C(F)(F)F)c1
growth at 10 µM [1]: 52.2%
growth at 10 µM [2]: 44.3%
growth at 10 µM [3]: -2.19%
growth at 10 µM [4]: -26.2%
IC50 [5]: 1.41 µM
GI50 ([5]; read-out: GI50): 1.41 µM
CC50 [5, 33]: > 100 µM
TGI ([5]; read-out: TGI): 15.5 µM
GI50 ([5]; read-out: pGI50 (converted)): 1.12 µM
CC50 [5, 34]: > 100 µM
TGI ([5]; read-out: pTGI (converted)): 15.5 µM
growth at 0.01 µM [6]: 93%
growth at 10 µM [7]: 15.4%
growth at 0.01 µM [8]: 104%
growth at 10 µM [9]: 29.7%
growth at 10 µM [10]: -15.5%
growth at 100 µM [11]: -12%
growth at 10 µM [12]: 26%
growth at 10 µM [13]: 70.3%
growth at 10 µM [14]: -48%
growth at 10 µM [15]: -3.77%
growth at 10 µM [16]: 9.89%
growth at 0.1 µM [17]: 97%
growth at 10 µM [18]: -20.7%
growth at 10 µM [19]: 43.5%
growth at 10 µM [20]: -3.65%
growth at 10 µM [21]: 36.4%
growth at 10 µM [22]: -26.9%
GI50 ([23]; read-out: GI50): 14.8 µM
CC50 [23, 33]: > 100 µM
TGI ([23]; read-out: TGI): 39.6 µM
GI50 ([23]; read-out: pGI50 (converted)): 14.8 µM
CC50 [23, 34]: > 100 µM
TGI ([23]; read-out: pTGI (converted)): 39.8 µM
growth at 10 µM [24]: -45.6%
growth at 10 µM [25]: 2.4%
growth at 1 µM [26]: 111%
growth at 10 µM [27]: 22.7%
growth at 1 µM [28]: 54%
growth at 10 µM [29]: 12.1%
growth at 0.1 µM [30]: 95%
growth at 100 µM [31]: 38%
growth at 10 µM [32]: 35%

O=C(Nc1cccc(-n2cc(-c3ccncc3)c(-c3cc(O)cc(Cl)c3)n2)c1)c1cc(C(F)(F)F)cc(C(F)(F)F)c1
growth at 10 µM [1]: 73.4%
growth at 10 µM [2]: 73%
growth at 10 µM [3]: 58.3%
growth at 10 µM [4]: 61%
IC50 [5]: 2.5 µM
GI50 ([5]; read-out: GI50): 2.5 µM
CC50 [5, 33]: > 100 µM
TGI ([5]; read-out: TGI): > 100 µM
GI50 ([5]; read-out: pGI50 (converted)): 2.51 µM
CC50 [5, 34]: > 100 µM
TGI ([5]; read-out: pTGI (converted)): > 100 µM
growth at 0.01 µM [6]: 99%
growth at 10 µM [7]: 42.7%
growth at 0.01 µM [8]: 101%
growth at 10 µM [9]: 23%
growth at 10 µM [10]: 20.4%
growth at 100 µM [11]: -10%
growth at 10 µM [12]: 31.2%
growth at 10 µM [13]: 73%
growth at 10 µM [14]: -34.6%
growth at 10 µM [15]: 32.1%
growth at 10 µM [16]: 21.2%
growth at 0.1 µM [17]: 89%
growth at 10 µM [18]: 24.5%
growth at 10 µM [19]: 74.1%
growth at 10 µM [20]: 28.9%
growth at 10 µM [21]: 15.2%
growth at 10 µM [22]: 61.8%
GI50 ([23]; read-out: GI50): 8.23 µM
CC50 [23, 33]: > 100 µM
TGI ([23]; read-out: TGI): 38.4 µM
GI50 ([23]; read-out: pGI50 (converted)): 8.32 µM
CC50 [23, 34]: > 100 µM
TGI ([23]; read-out: pTGI (converted)): 38 µM
growth at 10 µM [24]: -10.3%
growth at 10 µM [25]: 75.5%
growth at 1 µM [26]: 99%
growth at 10 µM [27]: 39.6%
growth at 1 µM [28]: 92%
growth at 10 µM [29]: 63.1%
growth at 0.1 µM [30]: 70%
growth at 100 µM [31]: 31%
growth at 10 µM [32]: 46.9%

COc1cc(Cl)cc(-c2nn(-c3cccc(NC(=O)Nc4cc(C(F)(F)F)cc(C(F)(F)F)c4)c3)cc2-c2ccncc2)c1
growth at 10 µM [1]: 6.61%
growth at 10 µM [2]: 23%
growth at 10 µM [3]: -41%
growth at 10 µM [4]: 7.18%
IC50 [5]: 0.26 µM
GI50 ([5]; read-out: GI50): 0.254 µM
CC50 [5, 33]: 0.0597 µM
TGI ([5]; read-out: TGI): 1.58 µM
GI50 ([5]; read-out: pGI50 (converted)): 0.263 µM
CC50 [5, 34]: 6.92 µM
TGI ([5]; read-out: pTGI (converted)): 1.58 µM
growth at 0.01 µM [6]: 94%
growth at 10 µM [7]: -6.14%
growth at 0.01 µM [8]: 101%
growth at 10 µM [9]: 3.81%
growth at 10 µM [10]: 6.4%
growth at 100 µM [11]: -58%
growth at 10 µM [12]: -2.95%
growth at 10 µM [13]: 30.3%
growth at 10 µM [14]: -75%
growth at 10 µM [15]: -17.5%
growth at 10 µM [16]: 12.2%
growth at 0.1 µM [17]: 87%
growth at 10 µM [18]: 1.22%
growth at 10 µM [19]: 11%
growth at 10 µM [20]: 9.5%
growth at 10 µM [21]: -1.62%
growth at 10 µM [22]: -19.2%
IC50 [23]: 1.46 µM
GI50 ([23]; read-out: GI50): 1.46 µM
CC50 [23, 33]: > 100 µM
TGI ([23]; read-out: TGI): 12.8 µM
GI50 ([23]; read-out: pGI50 (converted)): 1.45 µM
CC50 [23, 34]: > 100 µM
TGI ([23]; read-out: pTGI (converted)): 12.9 µM
growth at 10 µM [24]: -29.2%
growth at 10 µM [25]: -17.7%
growth at 1 µM [26]: 59%
growth at 10 µM [27]: -2.46%
growth at 1 µM [28]: 23%
growth at 10 µM [29]: 26.1%
growth at 0.1 µM [30]: 75%
growth at 100 µM [31]: -88%
growth at 10 µM [32]: 2.37%
